Assay results as given in patent US20130251731A1, “Tau Acetylation in the Pathogenesis of Alzheimers Disease and Other Related Tauopathies” (THE TRUSTEES OF THE UNIVERSITY OF PENNSYLVANIA, priority 2012, published 2013).
pIC50: −log10 of the molar value. Blank lines part the entries; values can stand above or below the compound they belong to.

Experiments:
[1] = test system: auto-acetylated substrate; settings: auto-acetylation, cited from earlier work; for Km: read-out: Km AcCoA [auto]
[2] = test system: histones and microtubules; settings: substrate as listed (H4-21, H3p19, H3, microtubules); cited from earlier work
[3] = test system: MT bundling in QBI-293 cells; test: MT bundling in tau-transfected QBI-293 cells (immunofluorescence); type: cell-based; settings: ten fields/transfection
Procedure: FIG. 2, comprising FIG. 2A through FIG. 2K, depicts the results of experiments which illustrate that tau acetylation in cells inhibits tau-mediated MT stabilization. FIG. 2A depicts the results of an experiment where Doxycycline (Dox)-treated HEK-T40 cells were cultured in the presence of either trichostatin A (TSA), nicotinamide (NCA) or both and pulse labelled with [^3H]-acetate for 2 h. Tau was immunoprecipitated, treated with λ-phosphatase where indicated, and analyzed by SDS-PAGE followed by autoradiography and exposure to film for 2 weeks. Total cellular lysates were analyzed by immunoblotting using anti-tau (T14/T46), PHF-1 and GAPDH antibodies. FIG. 2B illustrates the results of an experiment where cells transfected with CBP were treated with TSA and acetylated tau levels were determined by immunoprecipitation/immunoblot analysis using anti-acetylated lysine antibody. Cellular lysates were immunoblotted using T14/46, PHF-1, AT8 and GAPDH antibodies. FIG. 2C depicts the results of an experiment where cells were transfected with CBP and either wild-type (WT) HDAC6 or the catalytically dead (CD) HDAC6-H611A mutant and tau acetylation was determined by immunoblotting similar to FIG. 2B above. FIG. 2D depicts the results of an experiment where QBI-293 cells were transfected with WT T40, 2KR (K280/281R), 3KR (K163/280/281R) or 4KR (K163/280/281/369R) mutant T40 and cell lysates were immunoblotted using anti-acetyl-lysine and total tau (T14/T46) antibodies. FIG. 2E through FIG. 2G are images illustrating the results of an experiment where QBI-293 cells were transfected with WT T40 (FIG. 2E) and total MT bundling was determined by immunofluorescence using anti-acetylated tubulin antibodies as shown for WT (FIG. 2F). Merged images indicate stabilized microtubules as shown for WT (FIG. 2G). FIG. 2H through FIG. 2J are images illustrating the results of an experiment where QBI-293 cells were transfected with 4KQ (K163/280/281/369Q) (FIG. 2H) and MT bundling was determined by immunofluorescence using anti-acetylated tubulin antibodies as shown for 4KQ (FIG. 2I) and merged images (FIG. 2J). Representative images are shown from n=4 independent experiments. Note, WT tau (FIG. 2E-FIG. 2G), but not 4KQ (FIG. 2H-FIG. 2J), promotes robust MT bundling. Scale bar, […]. FIG. 2K is a graph illustrating the results of an experiment where QBI-293 cells were transfected with WT T40, K280Q, 4KQ (K163/280/281/369Q) or 4KR mutant plasmids and MT bundling was determined from tau-expressing cells by quantification of ten fields/transfection and values are represented as % MT bundling from tau-expressing cells. Error bars indicate standard error of the mean. *P value=0.006, ***P value=8.46×10^−6 as determined by Student's t-test. […]

[4] = molecular target: T1, tau-K18 acetyltransferase activity (Homo sapiens, UniProt P10636); test: Tau auto-acetylation filter binding assay, cofactor inhibition analysis; type: biochemical; settings: 25 μM tau, 450 μM [3H]-acetyl-CoA; for pIC50: 1 hr at 37° C., read-out: IC50 for inhibition of acetyl-CoA-dependent tau-K18 acetyltransferase activity
T1 construct: made in house
T1 sequence (P10636 561-685 limits assumed): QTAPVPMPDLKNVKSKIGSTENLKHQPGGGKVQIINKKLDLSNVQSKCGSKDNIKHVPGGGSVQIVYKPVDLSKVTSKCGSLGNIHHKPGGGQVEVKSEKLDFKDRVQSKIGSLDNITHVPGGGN
Procedure: Reactions were assembled in 50 μl of reaction buffer containing 50 mM Tris pH 8.0, 100 μM EDTA, and 10% glycerol. Unless specifically noted, reactions contained 25 μM of either WT tau-K18 or tau-K18-2CA mutant. The reactions were initiated by the addition of [^3H]-acetyl-CoA (2.35 Ci mmol^−1, Perkin Elmer) at concentrations ranging from 2.5 μM to 1 mM, incubated at 37° C., and allowed to proceed for 1 hr (unless otherwise noted). Reactions were stopped by the addition of 10 μl of 3 mM CoA, and 25 μl of the reaction was then spotted to a P81 filter paper (Whatman), washed in 10 mM HEPES pH 7.5 three times, and dried using acetone. Incorporated [^3H]-acetyl-CoA was then measured using the Perkin Elmer Tri-Carb 2800TR Liquid Scintillation Analyzer, and the molar amount of acetyl groups incorporated into tau were calculated from a standard curve of the radiolabeled acetyl-CoA.
Reactions were performed in the buffer described above and at 25 μM tau. Reactions included between 1 and 4000 μM of the inhibitors: CoA, acetonyl-CoA, or pantothenic acid. All reactions were initiated by the addition of 450 μM [^3H]-acetyl-CoA (2.35 Ci mmol^−1, Perkin Elmer), incubated for 1 hr at 37° C., and stopped by spotting 25 μl of the reaction to the P81 filter paper. Radiolabeled incorporation was measured as stated above. All data were analyzed using GraphPad Prism to determine kinetic parameters and IC50 values.

[5] = Heparin-induced tau fibrillization assay quantified by Thioflavin-T binding; type: biochemical; settings: 10 μM tau proteins, 10 μM heparin, 4-h incubation
Procedure: (§1) Recombinant full-length T40, 4R-tau MT-binding domain K18, or tau fibrils were acetylated by incubation with [^14C]-labeled acetyl-CoA in the presence or absence of CBP. FIG. 1A illustrates that the reaction products were analyzed by SDS-PAGE and Coomassie blue staining followed by overnight radiographic exposure using STORM phosphor-imager software. FIG. 1B depicts the results of an experiment where T40 or K18 proteins were incubated with acetyl-CoA and/or recombinant CBP and reaction products were subjected to immunoblot analysis using a polyclonal anti-tau-specific antibody for MT repeat domain (E10) and an anti-acetyl-lysine antibody. FIG. 1C is a graph depicting the MT assembly activities of K18 proteins as evaluated in light-scattering assays. Tubulin monomers (30 μM) were mixed with 40 μM tau proteins in MT assembly buffer supplemented with 2 mM guanosine triphosphate. MT assembly was determined by monitoring absorbance every minute at 350 nm using a SpectraMax plate reader. […] FIG. 1D is a graph illustrating the results of experiments where Tau proteins (10 μM) were evaluated in fibrillization reactions using 10 μM heparin to induce assembly. […] Samples were analysed by SDS-PAGE and Coomassie staining to monitor fibril formation. FIG. 1F illustrates the results of experiments where four-hour time points from fibrillization reactions were analysed by negative-staining EM. […]
Tau K18 protein was either mock acetylated or acetylated in vitro using acetyl-CoA substrate as indicated elsewhere herein. […] Protein concentrations were determined using the bicinchoninic acid protein assay (Pierce) with bovine serum albumin as the standard. Acetylated K18 and mock-treated K18 were assessed by a light-scattering assay as described elsewhere herein. […] The extent of fibrillization was assessed at different time points by ThT fluorescence assay, sedimentation analysis and negative staining EM as described elsewhere herein. For ThT fluorescence assay, ThT diluted in 100 mM glycine buffer (pH 8.5) was added and fluorometric readings were taken at 450 nm (excitation) and 510 nm (emission). […]

[6] = test system: tubulin; test: MT assembly light-scattering assay; type: biochemical; settings: 30 μM tubulin, 40 μM tau proteins, 2 mM GTP
Procedure: as §1

[7] = test system: acetylated tau in HEK-T40 cells; test: Tau acetylation in HEK-T40 cells ([3H]-acetate labelling / immunoprecipitation); type: cell-based, human
Procedure: FIG. 2, comprising FIG. 2A through FIG. 2K, depicts the results of experiments which illustrate that tau acetylation in cells inhibits tau-mediated MT stabilization. FIG. 2A depicts the results of an experiment where Doxycycline (Dox)-treated HEK-T40 cells were cultured in the presence of either trichostatin A (TSA), nicotinamide (NCA) or both and pulse labelled with [^3H]-acetate for 2 h. Tau was immunoprecipitated, treated with λ-phosphatase where indicated, and analyzed by SDS-PAGE followed by autoradiography and exposure to film for 2 weeks. Total cellular lysates were analyzed by immunoblotting using anti-tau (T14/T46), PHF-1 and GAPDH antibodies. FIG. 2B illustrates the results of an experiment where cells transfected with CBP were treated with TSA and acetylated tau levels were determined by immunoprecipitation/immunoblot analysis using anti-acetylated lysine antibody. […] FIG. 2C depicts the results of an experiment where cells were transfected with CBP and either wild-type (WT) HDAC6 or the catalytically dead (CD) HDAC6-H611A mutant and tau acetylation was determined by immunoblotting similar to FIG. 2B above. […] FIG. 2E through FIG. 2G are images illustrating the results of an experiment where QBI-293 cells were transfected with WT T40 (FIG. 2E) and total MT bundling was determined by immunofluorescence using anti-acetylated tubulin antibodies as shown for WT (FIG. 2F). […]

Compound: ESA1: MYST-family acetyltransferase, literature kinetics
Km [1]: 9.4 µM | Kcat [2]: 0.122 s⁻¹

Compound: 4KQ: tau acetylation mimetic K163/280/281/369Q
% MT bundling from tau-expressing cells [3]: ~7%

inhibition of tau activity (cofactor competition) ([4]; between 1 and 4000 μM inhibitor): did not show significant inhibition
Compound: CC(C)(CO)[C@@H](O)C(=O)NCCC(=O)O [pantothenic acid]

pIC50 [4]: 3.18
Compound: CC(=O)CSCCNC(=O)CCNC(=O)[C@H](O)C(C)(C)COP(=O)(O)OP(=O)(O)OC[C@H]1O[C@@H](n2cnc3c(N)ncnc32)[C@H](O)[C@@H]1OP(=O)(O)O [acetonyl-CoA]

Compound: acetylated K18: tau K18 protein acetylated in vitro using acetyl-CoA and CBP
fibrillization (ThT) [5]: fibrillized rapidly by 3 h | MT assembly (absorbance at 350 nm) [6]: failed to promote MT assembly

Compound: K280Q: single K280Q acetylation mimetic of T40 tau
% MT bundling from tau-expressing cells [3]: ~40%

Compound: CC(/C=C/C(=O)NO)=C\[C@@H](C)C(=O)c1ccc(N(C)C)cc1 [trichostatin A]
acetylated tau levels ([7]; HEK-T40 cells pulse labelled with [3H]-acetate for 2 h): dramatic increase in acetylated tau levels | acetylated tau (anti-acetyl-lysine) ([7]; HEK-T40 cells transiently transfected with CBP): dramatic accumulation of acetylated tau

pIC50 [4]: 4.23
Compound: CC(C)(COP(=O)(O)OP(=O)(O)OC[C@H]1O[C@@H](n2cnc3c(N)ncnc32)[C@H](O)[C@@H]1OP(=O)(O)O)[C@@H](O)C(=O)NCCC(=O)NCCS [CoA]

Compound: K18-K311D: K18 containing the K311D mutation, negative control
fibrillization (ThT) [5]: did not fibrillize

Compound: Rtt109 + Vps75: acetyltransferase listed for literature kinetics comparison
Kcat [auto] [1]: 0.002 s⁻¹ | Km [1]: 912 µM | Kcat [2]: 0.375 s⁻¹

Compound: 4KR: tau non-mimetic mutant K163/280/281/369R
% MT bundling from tau-expressing cells [3]: ~50%

Compound: p300: nuclear acetyltransferase, literature kinetics
Km [1]: 3310 µM | Kcat [2]: 0.46 s⁻¹

Compound: WT tau: wild-type longest human tau isoform (T40) expressed in cells
% MT bundling from tau-expressing cells [3]: ~55%
